{"source": "paper PMC10065791", "about": "(eLife, 2023)", "key": {"[1]": {"test_system": "wild-type virus NL4-3", "assay": "TZM infection assay (cell culture-based viral inhibition), wild-type virus", "set-up": "species or system HIV-1", "details": "Human immunodeficiency virus 1, NL43; wild-type NL4-3 virus; concentration at time of virus production reducing infectivity by 50%; TZM-bl readout", "experimental": "PI dilutions were prepared by taking 10 µM stocked and performing a fivefold serial dilution using RPMI media (final drug concentration is […]). One dilution of drug was added to each well of a 24-well plate and repeated so each virus would have a full set of dilutions. Viruses for the assay were made by seeding 3 × 10^6 CEM cells in a 24-well plate and incubating with 250 µl of virus at 37°C for 2–3 hr before bringing the culture to 10 ml with RPMI media. After 48 hr, the medium was changed and repeated every 48 hr after until the culture had undergone CPE. Infected CEM cells were collected and diluted so that 1 ml of cells could be plated in each well containing a unique drug dilution. Then 24 hr later the virus supernatant was collected from each well followed by filtering through a […] then placed in –80°C. Viruses were thawed and added to 96-well plates in triplicate. TZM-bl cells were collected and diluted to a concentration of 2 × 10^5 cells/ml, 100 µl were added on top of the pre-plated viruses. Plates were kept in 37°C, 5% CO2 in an incubator for 48 hr. After 48 hr, the cells in the plates were lysed by removing the medium, washing two times with 100 µl PBS, and then lysed with 1× lysis buffer (made from 5× Promega Firefly Lysis Buffer). Plates were frozen for at least 24 hr and then thawed for 2 hr before analyzing with Promega Firefly Luciferase Kit on a luminometer. Data was analyzed with Prism 7 to fit sigmoidal dose–response curves."}, "[2]": {"test_system": "HIV-1 NL4-3 wild-type virus", "assay": "Selection for resistance in CEMx174 culture with escalating inhibitor, start wild-type virus, Primer ID deep sequencing", "assay_type": "cell-based", "experimental": ". The selection experiments were performed under two separate starting conditions: first when the starting virus was generated from the NL4-3 clone (this clone closely approximates the clade B consensus for the protease amino acid sequence and will be referred to as ‘wild type’), then again when the starting virus was a mixture of 26 isogenic viruses each with a single mutation associated with drug resistance in the NL4-3 background. […]. For technical reasons, only five of the selections starting with the mixture of mutants reached an inhibitor concentration as high as 400 nM and are reported here (Figure 2—figure supplement 3).\nResistance mutations selected in the protease coding domain during the escalating selective pressure of increasing PI concentration were examined at various timepoints using a next-generation sequencing (NGS) protocol that included Primer ID with the MiSeq platform ([Zhou et al., 2015]). We first examined the sequence of the most abundant variant in each of the two selection schemes present at the highest inhibitor concentration reached (Figure 2A). For those selections that reached 5 μM, 8–14 mutations were present in the most abundant variant. Typically the next two most abundant variants in the population differed by a single amino acid, and on average the three most abundant variants in the 5 μM cultures accounted for 88% of the total viral population (Figure 2—source data 1). Evolution of resistance followed two pathways, one based on I50V and one based on I84V. In three cultures, V2wt, V5wt, and V2mut (which reached either 4 or 5 μM final drug concentration; V2wt indicates the virus pool selected with UMASS-2 starting with wild-type virus), these two mutations, I84V and I50V, became linked on the same genome (Figure 2A) showing they are not mutually exclusive; […].\nAn aliquot of 3 × 10^6 CEMx174 cells was incubated at 37°C for 2–3 hr with 250 µl of a virus stock generated from the HIV-1 infectious molecular clone pNL4-3. The culture volume was then brought to 10 ml with RPMI medium. […] After 48 hr and every 48 hr after, the cells were pelleted by centrifugation and 10 ml of fresh medium and inhibitors were added. When the culture had undergone extensive cytopathic effect (CPE) indicative of viral replication, the supernatant medium and the cells were harvested separately and stored at –80°C. The virus-containing supernatant was used to start the next round of infection, and after several rounds at the initial concentration, the inhibitor concentration was increased 1.5-fold at each subsequent round of virus passage.\nWe used the PID protocol to prepare MiSeq PID libraries with multiplexed primers. Viral RNA was extracted from plasma samples using the QIAamp viral RNA mini kit (QIAGEN, Hilden, Germany). Complementary DNA (cDNA) was synthesized using a cDNA primer mixture targeting protease (PR) with a block of random nucleotides in each cDNA primer serving as the PID, and SuperScript III RT (Thermo Fisher). After two rounds of bead purification of the cDNA, we amplified the cDNA using a mixture of a forward primer that targeted the upstream coding region, followed by a second round of PCR to incorporate the Illumina adaptor sequences. Gel-purified libraries were pooled and sequenced using the MiSeq 300 base paired-end sequencing protocol (Illumina). The sequencing covered the HIV-1 PR region (HXB2 2648-2914, 3001-3257).\nWe used the Illumina bcl2fastq pipeline for the initial processing and constructed template consensus sequences (TCSs) with TCS pipeline version 1.33 (https://github.com/SwanstromLab/PID) ([Zhou, 2019]). We then aligned TCSs to an HXB2 reference to remove sequences not at the targeted region or that had large deletions. We used the Entropy tool at LANL (https://www.hiv.lanl.gov/content/sequence/ENTROPY/entropy.html) to calculate entropy for each specimen. The sequencing data is available at NIH Sequencing Read Archive (SRA) under BioProject ID PRJNA853351."}}, "data": [{"smiles": "CC[C@H](C)CN(C[C@@H](O)[C@H](Cc1ccccc1)NC(=O)O[C@H]1CO[C@H]2OCC[C@H]21)S(=O)(=O)c1ccc2c(c1)OCO2", "note": "[UMASS-4]", "values": [{"measurement": "EC50", "setting": "[1]", "result": "3.2 ± 0.4", "unit": "nM"}, {"measurement": "Abundance of variant at the last time point", "setting": "[2]; variant 10F/11I/13V/32I/33F/43T/46L/54L/71V/82I/84V/89M/91S/92R, passage 81, [PI] 5000 nM", "result": 87.3, "unit": "%"}, {"measurement": "Abundance of variant at the last time point", "setting": "[2]; variant 10F/11I/32I/33F/43T/46L/54L/71V/82I/84V/89M/91S, passage 81, [PI] 5000 nM", "result": 1.3, "unit": "%"}, {"measurement": "Abundance of variant at the last time point", "setting": "[2]; variant 10F/11I/32I/33F/46L/54L/71V/82I/84V/89M/91S, passage 81, [PI] 5000 nM", "result": 1.1, "unit": "%"}]}, {"smiles": "CCC(CC)CN(C[C@@H](O)[C@H](Cc1ccccc1)NC(=O)O[C@H]1CO[C@H]2OCC[C@H]21)S(=O)(=O)c1ccc(N)cc1", "note": "[UMASS-6]", "values": [{"measurement": "EC50", "setting": "[1]", "result": "5.2 ± 0.8", "unit": "nM"}, {"measurement": "Abundance of variant at the last time point", "setting": "[2]; variant 10F/13V/16E/33F/46I/47A/50V/53L/71V, passage 46, [PI] 5000 nM", "result": 2.2, "unit": "%"}, {"measurement": "Abundance of variant at the last time point", "setting": "[2]; variant 10F/13V/33F/46I/47A/50V/53L/63P/71V, passage 46, [PI] 5000 nM", "result": 42.3, "unit": "%"}, {"measurement": "Abundance of variant at the last time point", "setting": "[2]; variant 10F/13V/33F/46I/47A/50V/53L/71V, passage 46, [PI] 5000 nM", "result": 45.1, "unit": "%"}]}, {"smiles": "CCC(CC)CN(C[C@@H](O)[C@H](Cc1ccccc1)NC(=O)O[C@H]1CO[C@H]2OCC[C@H]21)S(=O)(=O)c1ccc(OC)cc1", "note": "[UMASS-7]", "values": [{"measurement": "EC50", "setting": "[1]", "result": "3.1 ± 0.5", "unit": "nM"}, {"measurement": "Abundance of variant at the last time point", "setting": "[2]; variant 10F/13V/33F/46I/47V/50V/53L/54L/67Y/71V/82I, passage 76, [PI] 5000 nM", "result": 0.2, "unit": "%"}, {"measurement": "Abundance of variant at the last time point", "setting": "[2]; variant 10F/13V/33F/46I/47V/50V/53L/54L/71V/82I, passage 76, [PI] 5000 nM", "result": 94.5, "unit": "%"}, {"measurement": "Abundance of variant at the last time point", "setting": "[2]; variant 10F/13V/33F/46I/47V/50V/53L/54L/71V/82I/87K, passage 76, [PI] 5000 nM", "result": 0.2, "unit": "%"}]}, {"smiles": "CCC(CC)CN(C[C@@H](O)[C@H](Cc1ccccc1)NC(=O)O[C@H]1CO[C@H]2OCC[C@H]21)S(=O)(=O)c1ccc2c(c1)OCO2", "note": "[UMASS-9]", "values": [{"measurement": "EC50", "setting": "[1]", "result": "6.4 ± 1.2", "unit": "nM"}, {"measurement": "Abundance of variant at the last time point", "setting": "[2]; variant 10F/13V/33F/41K/45R/46I/47V/50V/53L/54L/66F/71V/74A/76S/82I, passage 78, [PI] 5000 nM", "result": 0.7, "unit": "%"}, {"measurement": "Abundance of variant at the last time point", "setting": "[2]; variant 10F/13V/33F/45R/46I/47V/50V/53L/54L/66F/71V/74A/76S/82I, passage 78, [PI] 5000 nM", "result": 92.3, "unit": "%"}, {"measurement": "Abundance of variant at the last time point", "setting": "[2]; variant 10F/13V/33F/45R/46I/47V/50V/53L/54L/66F/71V/74A/76S/82I/87K, passage 78, [PI] 5000 nM", "result": 0.4, "unit": "%"}]}, {"smiles": "CC[C@H](C)CN(C[C@@H](O)[C@H](Cc1ccccc1)NC(=O)O[C@H]1CO[C@H]2OCC[C@H]21)S(=O)(=O)c1ccc(CO)cc1", "note": "[UMASS-3]", "values": [{"measurement": "EC50", "setting": "[1]", "result": "9.1 ± 1", "unit": "nM"}, {"measurement": "Abundance of variant at the last time point", "setting": "[2]; variant 10F/33F/46I/47V/50V/53L/63P/71V/76S/82I, passage 93, [PI] 5000 nM", "result": 0.9, "unit": "%"}, {"measurement": "Abundance of variant at the last time point", "setting": "[2]; variant 10F/33F/46I/47V/50V/53L/63P/71V/76S/82I/85V/89I, passage 93, [PI] 5000 nM", "result": 85.7, "unit": "%"}, {"measurement": "Abundance of variant at the last time point", "setting": "[2]; variant 10F/33F/46I/47V/50V/53L/63P/71V/76S/82I/85V/89I/91S, passage 93, [PI] 5000 nM", "result": 1.1, "unit": "%"}]}, {"smiles": "CC[C@H](C)CN(C[C@@H](O)[C@H](Cc1ccccc1)NC(=O)O[C@H]1CO[C@H]2OCC[C@H]21)S(=O)(=O)c1ccc2ncsc2c1", "note": "[UMASS-5]", "values": [{"measurement": "EC50", "setting": "[1]", "result": "4 ± 0.5", "unit": "nM"}, {"measurement": "Abundance of variant at the last time point", "setting": "[2]; variant 10F/15V/46I/47V/50V/53L/71V/82I/84V/89T, passage 77, [PI] 5000 nM", "result": 67.9, "unit": "%"}, {"measurement": "Abundance of variant at the last time point", "setting": "[2]; variant 10F/46I/47V/50V/53L/63P/71V/82I/84V/89M, passage 77, [PI] 5000 nM", "result": 8.8, "unit": "%"}, {"measurement": "Abundance of variant at the last time point", "setting": "[2]; variant 10F/46I/47V/50V/53L/71V/82I/84V/89T, passage 77, [PI] 5000 nM", "result": 10.9, "unit": "%"}]}]}
